From US20130152233A1, “5-FLUOROCYTOSINE AS A SEED TREATMENT AGENT TO CONTROL PLANT DISEASE” (Dow AgroSciences LLC, priority 2011, published 2013)

Test system: Mycosphaerella graminicola; anamorph: Septoria tritici; Bayer code SEPTTR
Assay: Fungicidal activity as a seed treatment for leaf blotch of wheat (SEPTTR), treated 'Yuma' wheat seeds
Assay type: in vivo
Method: Evaluation of Fungicidal Activity as a Seed Treatment for Leaf Blotch of Wheat (Mycosphaerella graminicola; anamorph: Septoria tritici; Bayer code […]) Seeds of wheat variety 'Yuma' were treated with a 1% weight-to-volume (w/v) solution of 5-fluorocytosine in water at rates of 16.5, 5.5, 1.8, and 0 grams of active ingredient per 100 kilograms (g ai/100 kg) of seeds. A red dye and a polymer blend were included in the formulation as inert ingredients. Seeds were allowed to dry thoroughly and were sown 3 days (trial 1) or 5 weeks (trials 2 and 3) after treatment. Seeds (10-12 seeds/pot) were planted in 4 square inch pots containing 50% mineral soil/50% soil-less Metro mix. Eleven-day-old seedlings were inoculated with an aqueous spore suspension of Septoria tritici, and 6-10 pots of plants were inoculated for each fungicide rate. After inoculation, plants were kept in 100% relative humidity three days to allow establishment of infection. The plants were then transferred to a greenhouse until disease developed. When disease on untreated plants was fully expressed , disease severities on treated plants were assessed. […] Trial 1 was the average of 10 pots of plants; Trial 2 was the average of 6 pots of plants; and Trial 3 was the average of 6 pots of plants placed in weigh boats in order to prevent possible loss of the 5-fluorocytosine from soil leaching. The following tables include data showing the activity of 5-fluorocytosine when evaluated in these experiments. The effectiveness of 5-fluorocytosine in controlling disease was determined by assessing the severity of disease on treated plants, then converting the severity to percent control based on the level of disease on untreated, inoculated plants.

Nc1nc(=O)[nH]cc1F [5-fluorocytosine]
% Disease control (SEPTTR) (Trial 1, 1.8 g ai/100 kg seeds, sown 3 days after treatment, average of 10 pots): D (1-25)
% Disease control (SEPTTR) (Trial 1, 5.5 g ai/100 kg seeds, sown 3 days after treatment, average of 10 pots): C (26-50)
% Disease control (SEPTTR) (Trial 1, 16.5 g ai/100 kg seeds, sown 3 days after treatment, average of 10 pots): A (76-100)
% Disease control (SEPTTR) (Trial 2, 1.8 g ai/100 kg seeds, sown 5 weeks after treatment, average of 6 pots): C (26-50)
% Disease control (SEPTTR) (Trial 2, 5.5 g ai/100 kg seeds, sown 5 weeks after treatment, average of 6 pots): A (76-100)
% Disease control (SEPTTR) (Trial 2, 16.5 g ai/100 kg seeds, sown 5 weeks after treatment, average of 6 pots): A (76-100)
% Disease control (SEPTTR) (Trial 3, 1.8 g ai/100 kg seeds, sown 5 weeks after treatment, 6 pots in weigh boats): C (26-50)
% Disease control (SEPTTR) (Trial 3, 5.5 g ai/100 kg seeds, sown 5 weeks after treatment, 6 pots in weigh boats): A (76-100)
% Disease control (SEPTTR) (Trial 3, 16.5 g ai/100 kg seeds, sown 5 weeks after treatment, 6 pots in weigh boats): A (76-100)
control of SEPTTR (in words) (test rate of 16.5 g ai/100 kg seeds): significant level of control
